Source: the supplement of paper PMC12076712
± gives the standard deviation of the averaged measurements.

What was measured:
[1] = molecular target: LIMK1 (UniProt P53667); assay: pIC50, competition of probe 3 labelling in live cells; details: cell material: Jurkat cells
[2] = molecular target: T1, MAP4K2 (UniProt Q12851); assay: as above; details: cell material: Jurkat cells
T1 sequence (whole entry): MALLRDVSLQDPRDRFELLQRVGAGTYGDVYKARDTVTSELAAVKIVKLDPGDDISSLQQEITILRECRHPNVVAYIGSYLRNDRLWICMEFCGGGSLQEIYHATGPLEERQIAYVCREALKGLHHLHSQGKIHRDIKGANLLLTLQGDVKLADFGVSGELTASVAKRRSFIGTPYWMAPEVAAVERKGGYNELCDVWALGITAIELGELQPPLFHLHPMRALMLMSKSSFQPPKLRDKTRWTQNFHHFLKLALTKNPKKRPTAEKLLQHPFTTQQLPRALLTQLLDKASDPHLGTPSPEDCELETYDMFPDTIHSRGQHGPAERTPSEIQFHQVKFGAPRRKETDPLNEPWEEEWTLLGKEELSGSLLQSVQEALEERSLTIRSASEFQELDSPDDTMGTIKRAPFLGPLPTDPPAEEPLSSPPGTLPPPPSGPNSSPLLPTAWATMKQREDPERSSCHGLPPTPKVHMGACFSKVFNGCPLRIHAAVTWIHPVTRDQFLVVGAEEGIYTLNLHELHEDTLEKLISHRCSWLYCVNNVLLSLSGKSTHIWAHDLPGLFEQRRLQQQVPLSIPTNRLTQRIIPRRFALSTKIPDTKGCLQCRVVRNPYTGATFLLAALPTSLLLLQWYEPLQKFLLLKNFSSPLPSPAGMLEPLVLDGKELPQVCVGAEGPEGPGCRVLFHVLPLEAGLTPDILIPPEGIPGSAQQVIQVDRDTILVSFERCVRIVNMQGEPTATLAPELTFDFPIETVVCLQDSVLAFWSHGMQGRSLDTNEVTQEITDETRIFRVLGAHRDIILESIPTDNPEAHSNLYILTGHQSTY

[3] = molecular target: CDK2 (UniProt P24941); assay: as above; details: cell material: Jurkat cells
[4] = molecular target: T2, MASTL (UniProt Q96GX5); assay: as above; details: cell material: Jurkat cells
T2 sequence (whole entry): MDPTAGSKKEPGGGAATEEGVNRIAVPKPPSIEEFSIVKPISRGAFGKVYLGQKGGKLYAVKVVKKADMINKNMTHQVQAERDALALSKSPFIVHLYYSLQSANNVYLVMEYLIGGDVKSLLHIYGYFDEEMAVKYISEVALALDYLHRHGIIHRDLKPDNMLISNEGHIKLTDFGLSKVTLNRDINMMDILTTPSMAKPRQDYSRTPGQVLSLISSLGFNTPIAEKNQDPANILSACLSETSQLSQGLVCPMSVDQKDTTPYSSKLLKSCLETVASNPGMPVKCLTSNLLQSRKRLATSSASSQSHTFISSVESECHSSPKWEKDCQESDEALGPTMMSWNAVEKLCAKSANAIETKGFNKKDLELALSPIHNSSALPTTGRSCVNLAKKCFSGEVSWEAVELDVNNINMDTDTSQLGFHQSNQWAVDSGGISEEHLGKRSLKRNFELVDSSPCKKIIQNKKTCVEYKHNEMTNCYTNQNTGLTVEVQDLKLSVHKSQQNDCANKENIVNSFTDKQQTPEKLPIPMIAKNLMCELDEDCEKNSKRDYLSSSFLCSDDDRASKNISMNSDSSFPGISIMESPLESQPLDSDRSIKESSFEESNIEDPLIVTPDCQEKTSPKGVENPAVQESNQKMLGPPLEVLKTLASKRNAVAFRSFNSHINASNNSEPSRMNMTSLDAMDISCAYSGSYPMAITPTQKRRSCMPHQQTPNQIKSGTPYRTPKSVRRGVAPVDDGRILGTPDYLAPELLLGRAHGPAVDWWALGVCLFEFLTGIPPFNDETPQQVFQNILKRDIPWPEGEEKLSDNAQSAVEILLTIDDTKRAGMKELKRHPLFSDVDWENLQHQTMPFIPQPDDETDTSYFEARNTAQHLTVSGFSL

[5] = molecular target: MAP3K4 (UniProt Q9Y6R4); assay: pIC50, kinobeads binding competition; details: cell material: Jurkat lysate
[6] = molecular target: FGR (UniProt P09769); assay: pIC50, kinobeads binding competition; details: cell material: Jurkat lysate
[7] = molecular target: CDK10 (UniProt Q15131); assay: pIC50, kinobeads binding competition; details: cell material: Jurkat lysate
[8] = molecular target: T2, MASTL; assay: pIC50, kinobeads binding competition; details: cell material: Jurkat lysate
[9] = molecular target: LYPLA2 (UniProt O95372); assay: pIC50, competition of probe 3 labelling in live cells; details: cell material: Jurkat cells
[10] = molecular target: LYPLA1 (UniProt O75608); assay: as above; details: cell material: Jurkat cells
[11] = molecular target: T3, SGK3 (UniProt Q96BR1); assay: as above; details: cell material: Jurkat cells
T3 sequence (whole entry): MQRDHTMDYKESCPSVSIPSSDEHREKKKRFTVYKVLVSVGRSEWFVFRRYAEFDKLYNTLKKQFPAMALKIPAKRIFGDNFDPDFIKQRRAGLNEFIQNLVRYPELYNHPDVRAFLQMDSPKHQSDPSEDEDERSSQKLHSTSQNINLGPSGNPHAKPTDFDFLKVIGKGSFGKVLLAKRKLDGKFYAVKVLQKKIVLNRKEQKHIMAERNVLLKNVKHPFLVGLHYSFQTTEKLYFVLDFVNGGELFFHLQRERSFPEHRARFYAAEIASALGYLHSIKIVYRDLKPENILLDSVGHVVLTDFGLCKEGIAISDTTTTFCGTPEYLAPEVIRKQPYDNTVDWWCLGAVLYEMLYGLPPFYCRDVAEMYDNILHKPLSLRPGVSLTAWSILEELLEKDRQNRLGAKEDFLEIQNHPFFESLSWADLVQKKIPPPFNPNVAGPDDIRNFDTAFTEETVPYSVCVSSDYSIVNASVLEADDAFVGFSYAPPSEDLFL

[12] = molecular target: UniProt Q15418; assay: as above; details: cell material: Jurkat cells
[13] = molecular target: UniProt P19784; assay: as above; details: cell material: Jurkat cells
[14] = molecular target: ABHD6 (UniProt Q9BV23); assay: as above; details: cell material: Jurkat cells
[15] = molecular target: UniProt Q9Y6E0; assay: as above; details: cell material: Jurkat cells
[16] = molecular target: UniProt P28482; assay: as above; details: cell material: Jurkat cells

SMILES | pIC50 [1] | pIC50 [2] | pIC50 [3] | pIC50 [4] | pIC50 [5] | pIC50 [6] | pIC50 [7] | pIC50 [8] | pIC50 [9] | pIC50 [10] | pIC50 [11] | pIC50 [12] | pIC50 [13] | pIC50 [14] | pIC50 [15] | pIC50 [16]
CC#CC(=O)Nc1ccc2ncnc(Nc3cccc(Br)c3)c2c1 [EKI-785] | < 4.52 | < 4.52 | < 4.52 | < 4.52 | – | – | – | – | – | – | – | – | – | – | – | –
CCc1cnn2c(NCc3ccc[n+]([O-])c3)cc(N3CCCC[C@H]3CCO)nc12 [dinaciclib] | – | – | – | – | < 4.52 | < 4.52 | 7.86 ± 0.31 | < 4.52 | < 4.52 | < 4.52 | < 4.52 | < 4.52 | < 4.52 | < 4.52 | < 4.52 | < 4.52
